Measured values as given in patent publication US20250282749A1 (Tango Therapeutics, Inc., priority 2022, published 2025).

Legend:
Format in all cases: cell-based
[1] = system: HAP1 MTAP-deleted cell line; test: viability assay for the MTAP-deleted cell line; settings: Homo sapiens
[2] = system: PRMT5 (SDMA) in HAP1 MTAP-deleted cell line; test: SDMA in-cell western assay, HAP1 MTAP-deleted cell line; settings: for IC50 / IC90: Homo sapiens, SDMA in-cell western, HAP1 MTAP-deleted (MTAP-null) cell line; for Hap1 MTAP intact/deleted ratio: ratio of SDMA in-cell western IC50 in HAP1 MTAP-intact to IC50 in HAP1 MTAP-deleted cell line
Text: (§1) HAP1 MTAP-intact is a cell line in which endogenous levels of MTAP are expressed, and HAP1 MTAP-deleted is an MTAP-null cell line.

[3] = system: PRMT5 (SDMA) in HAP1 MTAP-intact cell line; test: SDMA in-cell western assay, HAP1 MTAP-intact cell line; settings: Homo sapiens, HAP1 MTAP-intact cell line (endogenous MTAP), read-out: Hap 1 MTAP intact IC50
Text: as §1

| Structure (SMILES) | IC50 [2] [nM] | IC90 [2] [nM] | IC50 [3] [nM] | IC50 [1] [nM] | Hap1 MTAP intact/deleted ratio [2] |
| --- | --- | --- | --- | --- | --- |
| CCc1cc(NC(=O)C(=O)N2C[C@H](C)N(C(=O)CC3CC3)C[C@H]2c2ccc(F)cc2)cnc1N [Compound 73, N-(6-amino-5-ethyl-3-pyridyl)-2-[(2R,5S)-4-(2-cyclopropylacetyl)-2-(4-fluorophenyl)-5-methyl-piperazin-1-yl]-2-oxo-acetamide] | 5 to 50 | 75 to 125 | > 50 | < 100 | B (an IC50 ratio greater than or equal to 15 fold but lower than 30 fold) |
| CC(C)C(=O)N1C[C@H](c2ccc(F)c(F)c2)N(C(=O)C(=O)Nc2cnc(N)c(C3CC3)c2)C[C@H]1C [Compound 75, N-(6-amino-5-cyclopropylpyridin-3-yl)-2-((5R)-2-(3,4-difluorophenyl)-4-isobutyryl-5-methylpiperazin-1-yl)-2-oxoacetamide] | 5 to 50 | > 125 | > 50 | < 100 | C (an IC50 ratio of less than 15 fold) |
| Cc1cc(NC(=O)C(=O)N2C[C@@H](C)N(C(=O)C3(C(F)(F)F)CC3)C[C@@H]2c2ccc(N3CCN(C)CC3)cc2)cnc1N [Compound 77, N-(6-amino-5-methylpyridin-3-yl)-2-((2S,5R)-5-methyl-2-(4-(4-methylpiperazin-1-yl)phenyl)-4-(1-(trifluoromethyl)cyclopropanecarbonyl)piperazin-1-yl)-2-oxoacetamide] | < 5 | < 75 | 5 to 50 | < 100 | B (an IC50 ratio greater than or equal to 15 fold but lower than 30 fold) |
| Cc1cc(NC(=O)C(=O)N2C[C@@H](C)N(C(=O)C3(C(F)(F)F)CC3)C[C@@H]2c2ccccc2)cnc1N [Compound 78, N-(6-amino-5-methylpyridin-3-yl)-2-((2S,5R)-5-methyl-2-phenyl-4-(1-(trifluoromethyl)cyclopropanecarbonyl)piperazin-1-yl)-2-oxoacetamide] | 5 to 50 | > 125 | > 50 | < 100 | B (an IC50 ratio greater than or equal to 15 fold but lower than 30 fold) |
| CCc1cc(NC(=O)C(=O)N2C[C@@H](C)N(C(=O)C3(C(F)(F)F)CC3)C[C@@H]2c2ccccc2)cnc1N [Compound 81, N-(6-amino-5-ethylpyridin-3-yl)-2-((2S,5R)-5-methyl-2-phenyl-4-(1-(trifluoromethyl)cyclopropanecarbonyl)piperazin-1-yl)-2-oxoacetamide] | 5 to 50 | 75 to 125 | > 50 | < 100 | B (an IC50 ratio greater than or equal to 15 fold but lower than 30 fold) |
| COc1ncc(NC(=O)C(=O)N2C[C@@H](C)N(C(=O)C(C)C)C[C@@H]2c2ccc(F)cc2)cc1C(N)=O [Compound 83, 5-[[2-[(2S,5R)-2-(4-fluorophenyl)-5-methyl-4-(2-methylpropanoyl)piperazin-1-yl]-2-oxo-acetyl]amino]-2-methoxy-pyridine-3-carboxamide] | 5 to 50 | 75 to 125 | > 50 | 100 to 1000 | A (an IC50 ratio greater than or equal to 30 fold) |
| COc1ncc(NC(=O)C(=O)N2C[C@H](C)N(C(=O)C(C)C)C[C@H]2c2ccc(F)cc2)cc1C(N)=O [Compound 88, 5-[[2-[(2R,5S)-2-(4-fluorophenyl)-5-methyl-4-(2-methylpropanoyl)piperazin-1-yl]-2-oxo-acetyl]amino]-2-methoxy-pyridine-3-carboxamide] | > 50 | > 125 | > 50 | > 1000 | C (an IC50 ratio of less than 15 fold) |
| CCc1cc(NC(=O)C(=O)N2C[C@@H](C)N(C(=O)C(C)C)C[C@@H]2c2ccc(N3CCN(C)CC3)cc2)cnc1N [Compound 89, N-(6-amino-5-ethylpyridin-3-yl)-2-((2S,5R)-4-isobutyryl-5-methyl-2-(4-(4-methylpiperazin-1-yl)phenyl)piperazin-1-yl)-2-oxoacetamide] | < 5 | < 75 | > 50 | < 100 | A (an IC50 ratio greater than or equal to 30 fold) |
| Cc1cc(NC(=O)C(=O)N2C[C@@H](C)N(C(=O)C(C)C)C[C@@H]2c2cccc(Cl)c2)cnc1N [Compound 90, N-(6-amino-5-methylpyridin-3-yl)-2-((2S,5R)-2-(3-chlorophenyl)-4-isobutyryl-5-methylpiperazin-1-yl)-2-oxoacetamide] | 5 to 50 | > 125 | > 50 | < 100 | B (an IC50 ratio greater than or equal to 15 fold but lower than 30 fold) |
| C[C@@H]1CN(C(=O)C(=O)Nc2cncc3cn[nH]c23)[C@@H](c2ccccc2)CN1C(=O)C1(C)CC1 [Compound 91, 2-((2S,5R)-5-methyl-4-(1-methylcyclopropanecarbonyl)-2-phenylpiperazin-1-yl)-2-oxo-N-(1H-pyrazolo[4,3-c]pyridin-7-yl)acetamide] | 5 to 50 | > 125 | > 50 | < 100 | B (an IC50 ratio greater than or equal to 15 fold but lower than 30 fold) |
| CC(C)C(=O)N1C[C@H](c2ccc3scnc3c2)N(C(=O)C(=O)Nc2cnc(N)c(C3CC3)c2)C[C@H]1C [Compound 93, N-(6-amino-5-cyclopropyl-3-pyridyl)-2-[(2S,5R)-2-(1,3-benzothiazol-5-yl)-5-methyl-4-(2-methylpropanoyl)piperazin-1-yl]-2-oxo-acetamide] | 5 to 50 | < 75 | 5 to 50 | < 100 | C (an IC50 ratio of less than 15 fold) |
| C[C@@H]1CN(C(=O)C(=O)Nc2cnc(N)c(C3CC3)c2)[C@@H](c2ccccc2)CN1C(=O)C1(C)CC1 [Compound 94, N-(6-amino-5-cyclopropylpyridin-3-yl)-2-((2S,5R)-5-methyl-4-(1-methylcyclopropanecarbonyl)-2-phenylpiperazin-1-yl)-2-oxoacetamide] | < 5 | 75 to 125 | > 50 | < 100 | B (an IC50 ratio greater than or equal to 15 fold but lower than 30 fold) |

Further lines, with some results ahead:

| IC50 [2] [nM] | IC90 [2] [nM] | IC50 [3] [nM] | Structure (SMILES) | IC50 [1] [nM] | Hap1 MTAP intact/deleted ratio [2] |
| --- | --- | --- | --- | --- | --- |
| 5 to 50 | 75 to 125 | > 50 | Cc1cc(NC(=O)C(=O)N2C[C@@H](C)N(C(=O)C(C)C)C[C@@H]2c2ccc(F)c(Cl)c2)cnc1N [Compound 74, N-(6-amino-5-methylpyridin-3-yl)-2-((2S,5R)-2-(3-chloro-4-fluorophenyl)-4-isobutyryl-5-methylpiperazin-1-yl)-2-oxoacetamide] | 100 to 1000 | A (an IC50 ratio greater than or equal to 30 fold) |
| < 5 | < 75 | 5 to 50 | C[C@@H]1CN(C(=O)C(=O)Nc2cnc(N)c3cn[nH]c23)[C@@H](c2ccc(F)cc2)CN1C(=O)C1(C(F)(F)F)CC1 [Compound 79] | < 100 | C (an IC50 ratio of less than 15 fold) |
| 5 to 50 | > 125 | > 50 | Cc1cc(NC(=O)C(=O)N2C[C@H](C)N(CC(C)C)C[C@H]2c2ccc(F)cc2)cnc1N [Compound 80, N-(6-amino-5-methyl-3-pyridyl)-2-[(2R,5S)-2-(4-fluorophenyl)-4-isobutyl-5-methyl-piperazin-1-yl]-2-oxo-acetamide] | 100 to 1000 | C (an IC50 ratio of less than 15 fold) |
| 5 to 50 | 75 to 125 | > 50 | CCc1cc(NC(=O)C(=O)N2C[C@@H](C)N(C(=O)C3(C(F)(F)F)CC3)C[C@@H]2c2ccc(C)cc2)cnc1N [Compound 85, N-(6-amino-5-ethylpyridin-3-yl)-2-((2S,5R)-5-methyl-2-(p-tolyl)-4-(1-(trifluoromethyl)cyclopropanecarbonyl)piperazin-1-yl)-2-oxoacetamide] | < 100 | B (an IC50 ratio greater than or equal to 15 fold but lower than 30 fold) |
| 5 to 50 | < 75 | > 50 | CC(C)C(=O)N1C[C@H](c2ccc(F)cc2)N(C(=O)C(=O)Nc2cnc(N)c(C3CC3)c2)C[C@H]1C [Compound 86, N-(6-amino-5-cyclopropylpyridin-3-yl)-2-((2S,5R)-2-(4-fluorophenyl)-4-isobutyryl-5-methylpiperazin-1-yl)-2-oxoacetamide] | < 100 | C (an IC50 ratio of less than 15 fold) |
| < 5 | > 125 | > 50 | CCc1cc(NC(=O)C(=O)N2C[C@@H](C)N(C(=O)C(C)C)C[C@@H]2c2ccc(F)c(Cl)c2)cnc1N [Compound 87, N-(6-amino-5-ethylpyridin-3-yl)-2-((2S,5R)-2-(3-chloro-4-fluorophenyl)-4-isobutyryl-5-methylpiperazin-1-yl)-2-oxoacetamide] | < 100 | A (an IC50 ratio greater than or equal to 30 fold) |
| 5 to 50 | 75 to 125 | > 50 | CCc1cc(NC(=O)C(=O)N2C[C@@H](C)OC[C@@H]2c2ccc3sc(C4CCN(C)CC4)nc3c2)cnc1N [Compound 96] | < 100 | B (an IC50 ratio greater than or equal to 15 fold but lower than 30 fold) |
| < 5 | < 75 | 5 to 50 | C[C@@H]1CN(C(=O)C(=O)Nc2cnc(N)c(C3CC3)c2)[C@@H](c2ccccc2)CN1C(=O)C(C)(C)C [Compound 97, N-(6-amino-5-cyclopropylpyridin-3-yl)-2-((2S,5R)-5-methyl-2-phenyl-4-pivaloylpiperazin-1-yl)-2-oxoacetamide] | < 100 | C (an IC50 ratio of less than 15 fold) |
